Reference: US4997926A, “Deaminase-stable anti-retroviral 2-halo-2',3'-dideoxy” (Scripps Clinic and Research Foundation, priority 1987, dated 1991)

What was measured:
[1] = system: CEM T lymphoblasts; assay: in vitro; type: in vitro ADME, human
Procedure: (§1) Under the same condition, only about 2 percent of [2',3'-^3 H]-2'3'-dideoxyadenosine remained in the medium after 4 hours culture.
(§2) ^1 Human CEM T lymphoblasts at a density of 2 × 10^7
(§3) cells/ml were incubated for 4 hours at 37 degrees C. with either 3 uM
(§4) [8^3 H2-chloro- 2',3dideoxyadenosine, or 2 uM [2',3^3
(§5) H2',3dideoxyadenosine or 2 uM [2',3^3 H2',3dideoxyinosine. Then the
(§6) dideoxynucleosides in the cultures were quantitated after separation by
(§7) HPLC. In these studies, the intracellular dideoxynucleotide content after
(§8) The human T lymphoblastoid cell line, CCRF-CEM, and mutants deficient in either deoxycytidine kinase (clone AraC-8D), or deoxycytidine kinase plus adenosine kinase (clone AraC-8DM10-5) were obtained and propagated as described previously [Foley et al., (1965) Cancer, 18:552-529 and Hershfield et al., (1982) J. Biol. Chem., 257:6380-6386]. For metabolic studies, the cells were cultured in RPMI 1640 medium supplemented with 2 mM L-glutamine and 10 percent fetal bovine serum at a density of 2×10^7 cells/ml in the presence of radiolabelled dideoxynucleosides, as indicated earlier. Some cultures were pre-incubatedfor 30 minutes either with 5 uM 2'-deoxycoformycin or 50 uM coformycin. After 4 hours of incubation the cells were harvested by centrifugation.
(§9) The radioactive compounds in the culture medium were fractionated by thin layer chromatography. Ten microliter (ul) aliquots of medium were spotted directly on cellulose plates and developed with 1 M ammonium acetate pH 7.4. […] The respective spots were cut out and radioactivity was determined by liquid scintillation spectrometry. The identities of the spots were also confirmed by cochromatography of the radioactive counts with authentic compounds on a C18 uBondapak column, that was eluted as described above.

[2] = system: uninfected ATH8 cells; conditions: normal, read-out: Dose required to reduce the viability by 50 percent; cited from earlier work
[3] = system: HIV in deoxycytidine kinase-deficient CEM variant; assay: HIV p24 (gag) antigen in deoxycytidine kinase deficient CEM variant; type: cell-based
Description: Open symbols show the effects of the respective same dideoxynucelosides on HIV replication in a deoxycytidine kinase-deficient CEM variant.
HIV infection of the CEM T lymphoblastoid cell line was monitored by the release of the HIV p24 (gag) protein into the medium, exactly as described previously [Cleveland et al. (1987) J. Clin. Microbiol., 25:416-420 and Fishbein et al. (1981) Biochem. Med., 26:377-386]. The growth inhibiting effects of the nucleosides toward CEM lymphoblasts, and toward the deoxycytidine kinase deficient mutant, were also monitored as described earlier [Carson et al. (1980) Proc. Natl. Acad. Sci. USA, 77:6865-6869].

[4] = in vitro; type: in vitro ADME, human; conditions: human, cem cell culture medium
Procedure: as §1, §2, §3, §4, §5, §6, §7, §8, §9

[5] = system: HIV in MDM cells; assay: Synthesis of HIV p24 (gag) antigen in monocyte derived macrophages (MDM), 3-day assay; type: cell-based; conditions: 0.1-100 uM
Description: The ability of AZT, ddC and ddA to inhibit synthesis of the p24 (gag) antigen of HIV in CEM and MDM cells was also examined. For CEM cells, the results for all three compounds were similar to those discussed in Mitsuya et al. (1987) Nature, 325:773-778 with ddC providing the most inhibitory effect at the lowest concentration, followed by AZT, followed by ddA in a 3-day assay.

[6] = acid conditions; cited from earlier work

SMILES | Catabolism ([1]; Addition none, 4 hours, 37 degrees C., 2-3 uM) [pmols/hr 10^8 cells] | deamination by CEM cells ([1]; radiolabelled compound, medium of CEM cell cultures) | CC50 [2] [µM] | protection from HIV infection, p24 (gag) antigen detection [3] | remaining at 4 h, 2 µM [4] [%] | inhibition of p24 (gag) production from MDM cells [5] | rate of acid hydrolysis relative to adenosine [6]
Nc1nc(Cl)nc2c1ncn2[C@H]1CC[C@@H](CO)O1 [2-chloro-2',3'-dideoxyadenosine] | 40 | did not significantly deaminate |  |  |  |  | 
Nc1ncnc2c1ncn2[C@H]1CC[C@@H](CO)O1 [2',3'-dideoxyadenosine, reference compound] |  |  | > 500 | equivalent anti-HIV activity | ~2 | none of those compounds provided any inhibition | about 40,000 times faster
